Experimental data from US20250049832A1, “CRYSTAL FORM OF NUCLEOSIDE COMPOUND” (priority 2021, published 2025).
Values after ≈ are worked out from the molar mass of the structure shown. One block for each compound: values may come before it.

What was measured:
[1] = Solid stability study (XRPD and HPLC purity after storage); type: physicochemical
Source text: X-ray powder diffraction patterns were collected using a zero-background sample plate on a Bruker D8 Advance X-ray diffractometer equipped with an autosampler. The radiation source used was Cu Kα (λ=1.5418 Å), with the X-ray tube voltage set at 40 kV and the X-ray tube current set at 40 mA. The divergence slit for the X-rays was 0.6 mm. A suitable amount of the sample was placed in the center of the zero-background sample plate under the ambient condition and lightly pressed with a clean glass slide to obtain a smooth, flat surface. The zero-background sample holder was then fixed. Diffraction analysis of the sample was performed with a scan step size of 0.02° (2θ) over a range of 3-40° (2θ). The software used for data collection was DIFFRAC.COMMANDER, and the data were analyzed and presented using DIFFRAC.EVA. The instrument used for liquid chromatography analysis is the Agilent HPLC 1260 series. [table] The ATV014 crystalline form I obtained from Example 2, batch number 41579-025-C1, was used for solid stability studies. The samples were placed under the conditions shown in Table 5, and then their XRPD and purity were tested.

physchem = type: physicochemical
Method: Based on the salt screening study results, the solubility of ATV014 crystalline form I obtained in Example 2, batch number 41579-025-C5, was determined at 37° C. in FaSSIF, FeSSIF, SGF, and water at 0.5 h, 2 h, and 24 h. The solubility of the sample is pH-dependent, meaning that the lower the pH, the higher the solubility.

[2] = Dynamic vapor sorption analysis (DVS), hygroscopicity; type: physicochemical; conditions: for DVS Hygroscopic weight gain %: 25° C., batch 41579-025-C5
Method: Vapor sorption/desorption data of the sample was obtained using DVS Intrinsic. A sample of 10-50 mg was weighed and placed in the sample chamber for automatic weighing. Parameters were set according to Table 1 to analyze the hygroscopicity of the sample.
The ATV014 crystalline form I obtained in Example 2 with batch number 41579-025-C5 was subjected to PLM (Polarized Light Microscopy Analysis), XRPD (X-ray Powder Diffraction), DSC (Differential Scanning calorimetry), TGA (Thermogravimetric Analysis), and DVS (Dynamic Vapor Sorption Instrument) testing.

[3] = Source text: (§1) The compound represented by the formula ATV014 is a derivative of the compound GS-441524.
[4] = Activity of ATV014 compared to GS-441524 (inventor's research)
Source text: as §1

SARS-CoV-2 = conditions: in vivo activity tests in mice; cited from earlier work
[5] = 40° C./75% RH, open container, 7 days
[6] = 60° C., closed container, 7 days
[7] = Room temperature/92.5% RH, open container, 7 days

Purity % ([1]; 0 day (start of stability study), batch 41579-025-C1): 98.12%
Purity % [1, 5]: 98.09%
XRPD result [1, 5]: No change
Purity % [1, 6]: 98.10%
XRPD result [1, 6]: No change
physical and chemical properties after storage ([1]; 7 days under 40° C./75% RH, 60° C., and 92.5% RH): remained stable
Purity % [1, 7]: 98.19%
XRPD result [1, 7]: No change
crystalline form of remaining solids during solubility determination (XRPD) (physchem): the crystalline form did not change
Solubility (physchem; 37 °C, pH 1.24, simulated gastric fluid, thermodynamic from solid): ~2.9 mg/mL (≈ 7.22 mM)
Solubility (physchem; 37 °C, pH 5.53, water, thermodynamic from solid): ~0.005 mg/mL (≈ 0.0125 mM)
Solubility (physchem; 0.5 h, pH 1.24): 2.48 mg/mL (≈ 6.18 mM)
Solubility (physchem; 2 h, pH 1.24): 2.56 mg/mL (≈ 6.38 mM)
Solubility (physchem; 24 h, pH 1.24): 2.86 mg/mL (≈ 7.12 mM)
XPRD (remaining solid) (physchem; 24 h, pH 5.53): Unchanged
XPRD (remaining solid) (physchem; simulated gi fluid, 24 h, pH 1.24): Unchanged
XPRD (remaining solid) (physchem; simulated gi fluid, 24 h, pH 4.95): Unchanged
XPRD (remaining solid) (physchem; simulated gi fluid, 24 h, pH 6.45): Unchanged
hygroscopicity (DVS results) [2]: low hygroscopicity
DVS Hygroscopic weight gain % ([2]; 80% RH): 80% RH: 0.31%.
DVS Hygroscopic weight gain % ([2]; 90% RH): 90% RH: 0.40%.
Crystalline form after DVS testing ([2]; after full sorption/desorption cycle): unchanged after
SMILES: N#C[C@@]1(c2ccc3c(N)ncnn23)O[C@H](COC(=O)C2CCCCC2)[C@@H](O)[C@H]1O [ATV014 crystalline form I]

bioavailability compared to the compound GS-441524 [3]: better
SMILES: N#C[C@@]1(c2ccc3c(N)ncnn23)O[C@H](COC(=O)C2CCCCC2)[C@@H](O)[C@H]1O [ATV014]
activity compared to the compound GS-441524 [4]: better

SMILES: N#C[C@@]1(c2ccc3c(N)ncnn23)O[C@H](CO)[C@@H](O)[C@H]1O [GS-441524]
antiviral activity compared to Remdesivir (SARS-CoV-2): superior antiviral activity compared to Remdesivir
